Measurements from the supplement of paper PMC11208160.

Assay: recombinant barcode read abundance after kanamycin selection (control-corrected) (log10(CPM+1)); higher = more efficient recombination; sequences stand for … in AGTGCAGAGAAAATCGGCCAGTTTTCTCTGCCTGCAGTCCGCATGCCGT…AGATTTATGCAGCGGACTGCCTTTCTCCCAAAGTGATAAACCGGACAGTATCATGGACCGGTTTTCCCGGTAATCCGTATTTGCAAGGTTGGTTTCACT; site = the 11-nt target
How it was run: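 Pooled E. coli screen pairing targets with IS621 bridge RNA target-binding loops. Each oligo (promoter, target, barcode, J23119-driven first 104 bridge RNA bases) was Gibson-cloned into a vector with the remaining 73 bp and T7-inducible recombinase, then co-electroporated with a donor plasmid. Two replicates each were plated on chloramphenicol/ampicillin LB agar (control) or chloramphenicol/ampicillin/kanamycin with 0.1 mM IPTG. Recombination efficiency is recombinant-junction barcode counts as CPM, averaged, control-corrected, reported as log10(CPM+1).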
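Note: IS621 recombinase and bridge RNA in Escherichia coli cells.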

Sequence | recombinant barcode read abundance (log10)
CTATCGCCTTGGGTTCTAACCTGTTGCCT (site CTGTCGCCTAG) | 0.0772
CTATCGCCTTGGGTTCTAACCTGTTGCCT (site CTTTCGCCTAG) | 0.0941
CTATTATCTTGGGTTCTAACCTGTTGCCT (site CTATTATCTAG) | 0.935
CTATTATCTTGGGTTCTAACCTGTTGCCT (site CTGTTATCTAG) | 0.0433
CTATTCTCTTGGGTTCTAACCTGTTGCCT (site CTATTCACTAG) | 0.472
CTATTCTCTTGGGTTCTAACCTGTTGCCT (site CTATTCCCTAG) | 0.188
CTATTCTCTTGGGTTCTAACCTGTTGCCT (site CTATTCGCTAG) | 0.011
CTATTCTCTTGGGTTCTAACCTGTTGCCT (site CTATTCTCTAG) | 2.03
CTATTTGCTTGGGTTCTAACCTGTTGCAA (site CTAATTGCTTT) | 0.0524
CTATTTGCTTGGGTTCTAACCTGTTGCAA (site CTACTTGCTTT) | 0.103
CTATTTGCTTGGGTTCTAACCTGTTGCAA (site CTAGTTGCTTT) | 0.0402
CTATTTGCTTGGGTTCTAACCTGTTGCAA (site CTATTTGCTTT) | 0.0441
CTCATTCCTTGGGTTCTAACCTGTTGCGT (site CTCATTCCTAA) | 0.00984
CTCATTCCTTGGGTTCTAACCTGTTGCGT (site CTCATTCCTAC) | 1.4
CTCATTCCTTGGGTTCTAACCTGTTGCGT (site CTCATTCCTAG) | 0.0869
CTCATTCCTTGGGTTCTAACCTGTTGCGT (site CTCATTCCTAT) | 0.212
CTCCATTCTTGGGTTCTAACCTGTTGCAT (site CTCAATTCTAT) | 0.217
CTCCATTCTTGGGTTCTAACCTGTTGCAT (site CTCCATTCTAT) | 1.74

Sequence | recombinant barcode read abundance (log10)
CTCCATTCTTGGGTTCTAACCTGTTGCAT (site CTCGATTCTAT) | 0.123
CTCCATTCTTGGGTTCTAACCTGTTGCAT (site CTCTATTCTAT) | 0.34
CTCCCTACTTGGGTTCTAACCTGTTGCAG (site CTCCCAACTCG) | 0.072
CTCCCTACTTGGGTTCTAACCTGTTGCAG (site CTCCCTACTCT) | 1.68
CTCCGGCCTTGGGTTCTAACCTGTTGCTT (site CTCCGACCTAA) | 0.809
CTCCGGCCTTGGGTTCTAACCTGTTGCTT (site CTCCGCCCTAA) | 0.0895
CTCCGGCCTTGGGTTCTAACCTGTTGCTT (site CTCCGGCCTAA) | 0.521
CTCCGGCCTTGGGTTCTAACCTGTTGCTT (site CTCCGTCCTAA) | 0.0711
CTCCGTACTTGGGTTCTAACCTGTTGCCG (site CTCCGTACTCG) | 0.13
CTCCGTACTTGGGTTCTAACCTGTTGCCG (site CTTCGTACTTG) | 0.0671
CTCCTACCTTGGGTTCTAACCTGTTGCCT (site CGCCTAGCTAG) | 0.11
CTCCTACCTTGGGTTCTAACCTGTTGCCT (site CTCCTACCTAG) | 0.957
CTCCTCTCTTGGGTTCTAACCTGTTGCCT (site CTCCTCCCTAG) | 0.862
CTCCTCTCTTGGGTTCTAACCTGTTGCCT (site CTCCTCTCTAG) | 2.05
CTCCTGCCTTGGGTTCTAACCTGTTGCCT (site CTCCTGCCTAG) | 0.977
CTCCTGCCTTGGGTTCTAACCTGTTGCCT (site TTCCTGACTAG) | 0.0902
CTCGACACTTGGGTTCTAACCTGTTGCCT (site CTAGACACTAG) | 0.697
CTCGACACTTGGGTTCTAACCTGTTGCCT (site CTCGACACTAG) | 1.82
